# Results taken from publication PMC6205183 (Oncotarget, 2018).
# Entries after “also recorded” stand apart in the source; their conditions may differ.
# Tests used:
# K562 T315I-R cells = assay: cells; details: Homo sapiens, K562, read-out: TKI viability assay IC50
# Description: (§1) Cells were removed from drug-containing culture medium, washed and re-cultured in fresh media (with testing drug) for 72 hours. Cells then were stained with 7-Amino-actinomycin D (7AAD) and Annexin V-PE. Flow cytometry (BD LSRFortessaTM X-20 with high-throughput platform) was performed to determine cell viability: cells stained positive for Annexin V-PE and 7AAD were considered to be apoptotic or dead respectively. The data were analysed using FCS Express software (DeNovo Software, Los Angeles, California, USA).
# K562 DOX 55D-R cells = assay: cells; details: Homo sapiens, K562, read-out: TKI viability assay IC50
# Description: as §1
# K562-R cells = assay: Viability assay (Annexin V/7AAD), K562-R; assay type: cell-based, human; details: for IC50 / viability on co-treatment with ponatinib: K562-R; for IC50: read-out: TKI viability assay IC50; for viability on co-treatment with ponatinib: compared to control line
# Description: as §1
# K562 DOX-R cells = assay: Viability assay (Annexin V/7AAD), K562 DOX-R; assay type: cell-based, human; details: for IC50 / viability on co-treatment with ponatinib: K562 DOX-R; for IC50: read-out: TKI viability assay IC50; for viability on co-treatment with ponatinib: compared to control line
# Description: as §1
# Axl [1] = details: no reference given; cited from earlier work
# Axl [2] = test system: Axl; design: method as in PMID 20080645, PMID 16230391, PMID 20603615, PMID 20145120; details: cited from earlier work
# [3] = 45 mg once daily; cited from earlier work
# [4] = test system: K562 DOX-R-scramble CTL cells; assay: Viability assay, scramble shRNA K562 DOX-R; assay type: cell-based, human; details: K562 DOX-R scrambled shRNA control, 10 nM ponatinib, 72 hours, n=3
# Description: (§2) Stable AXL knock-down K562-R-AXL KD, and K562 DOX-R-AXL KD cell lines were generated, as well as the scramble control lines K562-R-scramble CTL, and K562 DOX-R-scramble CTL.
# as §1
# (§3) The GFP level and Axl expression level were measured after fluorescence-activated cell sorting (FACS) and before each experiment to ensure purity.
# K562 DOX cells = assay: Viability assay (Annexin V/7AAD), K562 DOX control; assay type: cell-based, human; details: 200 nM ponatinib, three days
# Description: (§4) Flow cytometry (BD LSRFortessaTM X-20 with high-throughput platform) was performed to determine cell viability: cells stained positive for Annexin V-PE and 7AAD were considered to be apoptotic or dead respectively. […]
# K562-R-AXL KD cells = assay: Viability assay, AXL knock-down K562-R; assay type: cell-based, human; details: 10 nM ponatinib, 72 hours, n=3
# Description: as §2, §1, §3
# K562 DOX-R-AXL KD cells = assay: Viability assay, AXL knock-down K562 DOX-R; assay type: cell-based, human; details: 10 nM ponatinib, 72 hours, n=3
# Description: as §2, §1, §3
# K562 cells = assay: Viability assay (Annexin V/7AAD), K562 control; assay type: cell-based, human; details: 200 nM ponatinib, three days
# Description: as §4
# [5] = test system: K562-R-scramble CTL cells; assay: Viability assay, scramble shRNA K562-R; assay type: cell-based, human; details: K562-R scrambled shRNA control, 10 nM ponatinib, 72 hours, n=3
# Description: as §2, §1, §3
smiles,measurement,setting,value
Cc1cn(-c2cc(NC(=O)c3ccc(C)c(Nc4nccc(-c5cccnc5)n4)c3)cc(C(F)(F)F)c2)cn1 [nilotinib],IC50,K562 T315I-R cells,> 1000 nM
same,IC50,K562 DOX 55D-R cells,> 1000 nM
same,IC50,"K562-R cells; Homo sapiens, K-562R",> 1000 nM
same,IC50,K562 DOX-R cells; Homo sapiens,> 1000 nM
Cc1nc(Nc2ncc(C(=O)Nc3c(C)cccc3Cl)s2)cc(N2CCN(CCO)CC2)n1 [dasatinib],IC50,K562 T315I-R cells,> 200 nM
same,IC50,K562 DOX 55D-R cells,> 200 nM
same,IC50,"K562-R cells; Homo sapiens, K-562R",> 200 nM
same,IC50,K562 DOX-R cells; Homo sapiens,> 200 nM
CCOc1ccn(-c2ccc(F)cc2)c(=O)c1C(=O)Nc1ccc(Oc2ccnc(N)c2Cl)c(F)c1 [BMS-777607],viability on co-treatment with ponatinib,"K562-R cells; 12.5 μM BMS777607 + 200 nM ponatinib, n=3, p=0.03",significantly reduced; also recorded: induced cell death significantly
same,viability on co-treatment with ponatinib,"K562 DOX-R cells; 12.5 μM BMS777607 + 200 nM ponatinib, n=4, p<0.01",significantly reduced; also recorded: induced cell death significantly
same,potency against Axl relative to MET,Axl [1],3 times
Nc1nc(Nc2ccc3c(c2)CCC(N2CCCC2)CC3)nn1-c1cc2c(nn1)-c1ccccc1CCC2 (stereo not drawn) [R428],specificity in targeting Axl over the other TAM family members (Mer and Tyro3),Axl [2],50 to 100 fold
same,viability on co-treatment with ponatinib,"K562-R cells; 1 μM R428 + 200 nM ponatinib, n=3, p=0.02",significantly reduced; also recorded: induced cell death significantly
same,viability on co-treatment with ponatinib,"K562 DOX-R cells; 1 μM R428 + 200 nM ponatinib, n=4, p=0.02",significantly reduced; also recorded: induced cell death significantly
"Cc1ccc(C(=O)Nc2ccc(CN3CCN(C)CC3)c(C(F)(F)F)c2)cc1C#Cc1cnc2cccnn12 [ponatinib, 3-[2-(imidazo[1,2-b]pyridazin-3-yl)ethynyl]-4-methyl-N-{4-[(4-methylpiperazin-1-yl)methyl]-3-(trifluoromethyl)phenyl}benzamide]",medium human peak plasma level,[3],145 nM
same,medium human trough plasma level,[3],64 nM
same,reduction in viability,[4],16%
same,sensitivity to ponatinib (viability),K562 DOX cells,demonstrated sensitivity
same,reduction in viability,K562-R-AXL KD cells,68%
same,reduction in viability,K562 DOX-R-AXL KD cells,53%
same,sensitivity to ponatinib (viability),K562 cells,demonstrated sensitivity
same,reduction in viability,[5],22%
same,viability at 0.2 µM,"K562-R cells; Homo sapiens, K-562R, 72 h",> 75%
same,viability at 0.2 µM,"K562 DOX-R cells; Homo sapiens, K562, 72 h",> 75%
